Where a name gives a salt, the structure may show the parent alone.
What was measured:
[1] = target: T1, acetylcholinesterase (Rattus norvegicus, UniProt P37136); test: biochemical; set-up: species or system Male Wistar rats
T1 construct: corpora striata dissected free, weighted and homogenized in 19 volumes; from tissue; host or cells: rat brain corpora striata, crude homogenate
T1 sequence (P37136 32-614): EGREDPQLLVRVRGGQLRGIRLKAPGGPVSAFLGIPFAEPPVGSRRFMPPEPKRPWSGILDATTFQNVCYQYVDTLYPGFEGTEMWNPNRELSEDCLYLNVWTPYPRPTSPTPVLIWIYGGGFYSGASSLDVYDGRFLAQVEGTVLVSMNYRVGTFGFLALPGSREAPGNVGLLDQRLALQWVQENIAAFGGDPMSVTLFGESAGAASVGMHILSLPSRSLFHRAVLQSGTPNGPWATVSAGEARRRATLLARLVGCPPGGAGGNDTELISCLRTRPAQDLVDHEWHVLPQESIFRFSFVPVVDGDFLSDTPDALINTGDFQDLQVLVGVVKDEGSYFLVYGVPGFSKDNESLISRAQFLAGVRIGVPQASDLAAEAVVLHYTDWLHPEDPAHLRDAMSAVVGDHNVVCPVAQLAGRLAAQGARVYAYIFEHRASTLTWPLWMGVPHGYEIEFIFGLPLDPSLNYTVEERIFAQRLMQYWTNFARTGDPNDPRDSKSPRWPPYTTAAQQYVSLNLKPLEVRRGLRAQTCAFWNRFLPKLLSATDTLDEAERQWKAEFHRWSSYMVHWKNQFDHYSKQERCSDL
Description: 0.05M Phosphate Buffer (pH 7.2)
A solution of monobasic sodium phosphate monohydrate (6.85 g) in distilled water (100 ml) is added to a solution of dibasic sodium phosphate heptahydrate (13.4 g) and distilled water (100 ml) until a pH of 7.2 was attained. The solution was diluted 1 to 10 with distilled water.
5,5-Dithiobisnitrobenzoic acid in Buffer
The 0.05M Phosphate Buffer (pH 7.2) was added to 5.5-dithiobisnitrobenzoic acid to a total volume of 100 ml, i.e., a quantity sufficient (gs) to 100 ml.
A 2 millimolar stock solution of the test drug is prepared in a quantity sufficient of either acetic acid or dimethyl sulfoxide to volume with 5,5-dithiobisnitrobenzoic acid in Buffer. […]
Male Wistar rats are decapitated, brains rapidly removed, corpora striata dissected free, weighted and homogenized in 19 volumes (approximately 7 mg protein/ml) of 0.05M Phosphate Buffer (pH 7.2) using a Potter-Elvejhem homogenizer. […] Enzyme activity is measured with a Beckman DU-50 spectrophotometer with the following software and instrument settings: • 1. […]
Blank values are determined for each run to control for non-enzymatic hydrolysis of substrate and these values are automatically subtracted by the Kindata program available on kinetics soft-pac module. This program also calculates the rate of absorbance change for each cuvette. […]
IC50 values are calculated from log-probit analysis

[2] = target: clonidine: α2-receptor; test: in vitro clonidine binding: α2-receptor assay; set-up: species or system Male Wistar rats; settings: rat cortical tissue homogenate; 3 nM 3H-clonidine; 20 minutes at 25° C; log-probit analysis; read-out: Inhibition of clonidine binding activity IC50
Description: The following reagents are prepared: 1.
[4-^3H]-Clonidine Hydrochloride (20-30 Ci/mmol) is obtained from New England Nuclear. […] Clonidine hydrochloride is obtained from Boehringer Ingelheim. A stock solution of 0.1 mM clonidine is made up to determine nonspecific binding. This yields a final concentration of 1 µM in the assay (20 µl to 2 ml). […] Test compounds. For most assays, a 1 mM stock solution is made up in a suitable solvent and serially diluted, such that the final concentration in the assay ranges from 10-^5 to 10-^8M.
Male Wistar rats are sacrificed by decapitation and the cortica tissue rapidly dissected. The tissue is homogenized in 50 volumes of 0.05 M Tris buffer, pH 7.7 (buffer 1b) with the Brinkman Polytron, then centrifuged at 40,000 g for 15 minutes. The supernatant is discarded and the pellet rehomogenized in the original volume of 0.05 M Tris buffer, pH 7.7 and recentrifuged as before. The supernate is discarded and the final pellet rehomogenized in 50 volumes of Buffer 2b. This tissue suspension is then stored on ice. The final tissue concentration is 10 mg/ml. […]
Tissue homogenates are incubated for 20 minutes at 25° C with 3 nM ^3H-clonidine and varying drug concentrations, then immediately filtered under reduced pressure on Whatman GF/B filters. […] Ten ml of liquescent counting solution is added to each sample which is then counted by liquid scintillation spectroscopy. […]

| Structure (SMILES) | IC50 [1] [nM] | IC50 [2] [nM] |
| --- | --- | --- |
| C#CCOc1cc(CN2CCN(c3ccccn3)CC2)ccc1OC [4-Methoxy-3-(propargyloxy)-1-[[4-(pyridin-2-yl)piperazin-1-yl]methyl] benzene hydrochloride monohydrate] | 26900 | 34.6 |
| C#CCOc1cc(CN2CCCC2)ccc1OC(=O)NC [reference compound] | 3.6 |  |

— EP1032559B1 (priority 1997, dated 1999)
